Experimental data reported in patent publication US20260306640A1, “TECHNOLOGIES TARGETING CELL STATES” (Auron Therapeutics, Inc., priority 2023, published 2026).

How the values were obtained:
KAT2A = KAT2A (Homo sapiens, UniProt Q92830); assay: KAT2A degradation, Western Blot (Jess), NCI-H1048 cells; format: cell-based; design: degrader, Western blot (Jess); conditions: NCI-H1048 cells, KAT2A, 24 h, Western Blot, vs DMSO; read-out: KAT2A NCI-H1048 DC50
In short: (§1)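 DC50 came from protein loss relative to DMSO, measured by Jess capillary immunoblot of RIPA lysates with chemiluminescence read-out. Before lysis, NCI-H1048 cells in 5% FBS HITES medium were exposed to compound for 24 h at 37° C.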

KAT2B = KAT2B (Homo sapiens, UniProt Q92831); assay: KAT2B degradation, Western Blot (Jess), NCI-H1048 cells; format: cell-based; design: degrader, Western blot (Jess); conditions: NCI-H1048 cells, KAT2B, 24 h, Western Blot, vs DMSO; read-out: KAT2B NCI-H1048 DC50
Sequence of KAT2B (Q92831 whole entry): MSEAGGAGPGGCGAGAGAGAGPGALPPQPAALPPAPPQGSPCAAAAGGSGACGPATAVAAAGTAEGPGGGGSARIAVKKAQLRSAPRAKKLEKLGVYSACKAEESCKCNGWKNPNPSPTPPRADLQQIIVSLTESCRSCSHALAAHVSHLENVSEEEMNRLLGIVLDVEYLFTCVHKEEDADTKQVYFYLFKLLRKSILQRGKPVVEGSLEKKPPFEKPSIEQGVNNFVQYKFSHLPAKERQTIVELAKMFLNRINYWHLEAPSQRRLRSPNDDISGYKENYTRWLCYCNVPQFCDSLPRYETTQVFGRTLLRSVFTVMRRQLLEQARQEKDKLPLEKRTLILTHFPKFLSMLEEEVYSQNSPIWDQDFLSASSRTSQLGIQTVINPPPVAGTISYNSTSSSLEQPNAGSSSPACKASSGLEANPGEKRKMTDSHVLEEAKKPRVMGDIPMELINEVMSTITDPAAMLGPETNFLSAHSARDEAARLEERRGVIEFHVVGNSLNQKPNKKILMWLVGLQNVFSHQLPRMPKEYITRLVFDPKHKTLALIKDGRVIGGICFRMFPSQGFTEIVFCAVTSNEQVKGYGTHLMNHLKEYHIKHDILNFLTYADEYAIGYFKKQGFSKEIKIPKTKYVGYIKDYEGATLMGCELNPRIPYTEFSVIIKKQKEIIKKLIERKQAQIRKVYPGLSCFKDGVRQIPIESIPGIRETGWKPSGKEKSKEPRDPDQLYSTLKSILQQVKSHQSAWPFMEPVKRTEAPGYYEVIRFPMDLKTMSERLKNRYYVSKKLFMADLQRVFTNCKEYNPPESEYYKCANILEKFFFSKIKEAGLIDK
In short: as §1

Sequence of KAT2A (Q92830 whole entry): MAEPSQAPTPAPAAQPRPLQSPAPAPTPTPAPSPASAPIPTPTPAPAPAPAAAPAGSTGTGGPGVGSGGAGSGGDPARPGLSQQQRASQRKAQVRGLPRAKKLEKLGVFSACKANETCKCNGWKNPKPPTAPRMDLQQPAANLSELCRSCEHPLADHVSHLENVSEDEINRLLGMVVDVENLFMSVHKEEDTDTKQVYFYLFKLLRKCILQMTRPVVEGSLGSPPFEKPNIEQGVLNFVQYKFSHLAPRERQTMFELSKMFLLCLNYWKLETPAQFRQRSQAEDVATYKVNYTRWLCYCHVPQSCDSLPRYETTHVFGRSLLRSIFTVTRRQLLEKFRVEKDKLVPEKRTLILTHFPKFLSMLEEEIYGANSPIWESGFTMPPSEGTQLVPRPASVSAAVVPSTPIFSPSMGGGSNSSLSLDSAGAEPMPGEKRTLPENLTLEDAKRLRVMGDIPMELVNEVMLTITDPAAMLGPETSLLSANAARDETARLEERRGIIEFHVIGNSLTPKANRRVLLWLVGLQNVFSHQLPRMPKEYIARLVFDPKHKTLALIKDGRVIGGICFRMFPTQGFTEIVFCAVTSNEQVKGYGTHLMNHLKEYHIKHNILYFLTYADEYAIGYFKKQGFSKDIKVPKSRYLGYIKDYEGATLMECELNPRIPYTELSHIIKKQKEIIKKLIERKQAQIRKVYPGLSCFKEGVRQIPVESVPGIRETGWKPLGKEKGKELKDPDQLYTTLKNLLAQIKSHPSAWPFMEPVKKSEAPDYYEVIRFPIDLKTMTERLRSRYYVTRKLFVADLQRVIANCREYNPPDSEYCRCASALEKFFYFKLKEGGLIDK

SMILES | DC50 (KAT2A) [nM] | DC50 (KAT2B) [nM]
Cc1c(N[C@@H]2C[C@H](c3ccc(C(=O)N4CCC5(CC4)CCN(c4ccc6c(C7CCC(=O)NC7=O)nccc6c4)CC5)cc3)CN(C)C2)cnn(C)c1=O (stereo partly shown) [Compound 295] | < 1 | 1 to 30
CN1C[C@H](Nc2cnn(C)c(=O)c2Cl)C[C@H](c2ccc(C(=O)N3CCC4(CC3)CCN(c3ccc5c(C6CCC(=O)NC6=O)cncc5c3)CC4)cc2)C1 (stereo partly shown) [Compound 296] | < 1 | < 1
CN1C[C@H](Nc2cnn(C)c(=O)c2Br)C[C@H](c2ccc(C(=O)N3CCC4(CC3)CCN(c3ccc5c(C6CCC(=O)NC6=O)cncc5c3)CC4)cc2)C1 (stereo partly shown) [Compound 297] | < 1 | < 1
CN1C[C@H](Nc2cnn(C)c(=O)c2Cl)C[C@H](c2ccc(CN3CCN(c4ccc5cc(C6CCC(=O)NC6=O)cnc5c4)CC3)cc2)C1 (stereo partly shown) [Compound 298] | < 1 | > 30
CN1C[C@H](Nc2cnn(C)c(=O)c2Br)C[C@H](c2ccc(CN3CCN(c4ccc5cc(C6CCC(=O)NC6=O)cnc5c4)CC3)cc2)C1 (stereo partly shown) [Compound 299] | < 1 | 1 to 30
CN1C[C@H](Nc2cnn(C)c(=O)c2Br)C[C@H](c2ccc(C(=O)N3CCC4(CC3)CCN(c3ccc5c(c3)C(=O)N(C3CCC(=O)NC3=O)C5=O)CC4)cc2)C1 (stereo partly shown) [Compound 300] | < 1 | < 1
CN1C[C@H](Nc2cnn(C)c(=O)c2Cl)C[C@H](c2ccc(C(=O)N3CCC4(CC3)CCN(c3ccc5c(c3)C(=O)N(C3CCC(=O)NC3=O)C5=O)CC4)cc2)C1 (stereo partly shown) [Compound 301] | < 1 | < 1
CN1C[C@H](Nc2cnn(C)c(=O)c2Cl)C[C@H](c2ccc(C(=O)N3CCC4(CC3)CCN(c3cccc5c3C(=O)N(C3CCC(=O)NC3=O)C5=O)CC4)cc2)C1 (stereo partly shown) [Compound 302] | 1 to 30 | 1 to 30
Cc1c(N[C@@H]2C[C@H](c3ccc(CN4CCN(c5ccc6c(c5)C(=O)N(C5CCC(=O)NC5=O)C6=O)CC4)cc3)CN(C)C2)cnn(C)c1=O (stereo partly shown) [Compound 303] | < 1 | 1 to 30
CN1C[C@H](Nc2cnn(C)c(=O)c2Br)C[C@H](c2ccc(CN3CCN(c4cc5c(cc4F)C(=O)N(C4CCC(=O)NC4=O)C5=O)CC3)cc2)C1 (stereo partly shown) [Compound 304] | < 1 | 1 to 30
CN1C[C@H](Nc2cnn(C)c(=O)c2Cl)C[C@H](c2ccc(CN3CCN(c4cc5c(cc4F)C(=O)N(C4CCC(=O)NC4=O)C5=O)CC3)cc2)C1 (stereo partly shown) [Compound 305] | 1 to 30 | > 30
Cc1c(N[C@@H]2C[C@H](c3ccc(CN4CCN(c5cc6c(cc5F)C(=O)N(C5CCC(=O)NC5=O)C6=O)CC4)cc3)CN(C)C2)cnn(C)c1=O (stereo partly shown) [Compound 306] | 1 to 30 | > 30
Cc1cc(N2CC(N3CCN(C(=O)c4ccc([C@H]5C[C@@H](Nc6cnn(C)c(=O)c6Br)CN(C)C5)cc4)CC3)C2)ccc1C1CCC(=O)NC1=O (stereo partly shown) [Compound 307] | < 1 | 1 to 30
Cc1cc(N2CC(N3CCN(C(=O)c4ccc([C@H]5C[C@@H](Nc6cnn(C)c(=O)c6Cl)CN(C)C5)cc4)CC3)C2)ccc1C1CCC(=O)NC1=O (stereo partly shown) [Compound 308] | < 1 | 1 to 30
Cc1cc(N2CCC(N3CCN(C(=O)c4ccc([C@H]5C[C@@H](Nc6cnn(C)c(=O)c6Br)CN(C)C5)cc4)CC3)CC2)ccc1C1CCC(=O)NC1=O (stereo partly shown) [Compound 309] | < 1 | > 30
Cc1cc(N2CCC(N3CCN(C(=O)c4ccc([C@H]5C[C@@H](Nc6cnn(C)c(=O)c6Cl)CN(C)C5)cc4)CC3)CC2)ccc1C1CCC(=O)NC1=O (stereo partly shown) [Compound 310] | < 1 | > 30
Cc1cc(N2CCN(C3CN(C(=O)c4ccc([C@H]5C[C@@H](Nc6cnn(C)c(=O)c6Br)CN(C)C5)cc4)C3)CC2)ccc1C1CCC(=O)NC1=O (stereo partly shown) [Compound 311] | 1 to 30 | > 30
Cc1cc(N2CCN(C3CCN(C(=O)c4ccc([C@H]5C[C@@H](Nc6cnn(C)c(=O)c6Br)CN(C)C5)cc4)CC3)CC2)ccc1C1CCC(=O)NC1=O (stereo partly shown) [Compound 312] | < 1 | > 30
CN1C[C@H](Nc2ccn(C)c(=O)c2Br)C[C@H](c2ccc(C(=O)N3CCC4(CCC(c5ccc(C6CCC(=O)NC6=O)cc5)CC4)CC3)cc2)C1 (stereo partly shown) [Compound 313] | < 1 | < 1
CN1C[C@H](Nc2ccn(C)c(=O)c2Cl)C[C@H](c2ccc(C(=O)N3CCC4(CCC(c5ccc(C6CCC(=O)NC6=O)cc5)CC4)CC3)cc2)C1 (stereo partly shown) [Compound 314] | < 1 | 1 to 30
Cc1c(N[C@@H]2C[C@H](c3ccc(C(=O)N4CCC5(CCC(c6ccc(C7CCC(=O)NC7=O)cc6)CC5)CC4)cc3)CN(C)C2)ccn(C)c1=O (stereo partly shown) [Compound 315] | < 1 | 1 to 30
Cc1c(N[C@@H]2C[C@H](c3ccc(C(=O)N4CCC5(CC4)CCN(c4ccc(C6CCC(=O)NC6=O)c(F)c4)CC5)cc3)CN(C)C2)cnn(C)c1=O (stereo partly shown) [Compound 316] | < 1 | < 1

SMILES | DC50 (KAT2A) [nM] | DC50 (KAT2B) [nM]
CN1C[C@H](Nc2cnn(C)c(=O)c2Cl)C[C@H](c2ccc(C(=O)N3CCC4(CC3)CCN(c3ccc(C5CCC(=O)NC5=O)c(F)c3)CC4)cc2)C1 (stereo partly shown) [Compound 317] | < 1 | < 1
COc1cc(N2CCC3(CCN(C(=O)c4ccc([C@H]5C[C@@H](Nc6cnn(C)c(=O)c6Br)CN(C)C5)cc4)CC3)CC2)ccc1C1CCC(=O)NC1=O (stereo partly shown) [Compound 318] | < 1 | 1 to 30
COc1cc(C2CCC3(CC2)CCN(C(=O)c2ccc([C@H]4C[C@@H](Nc5cnn(C)c(=O)c5Cl)CN(C)C4)cc2)CC3)ccc1C1CCC(=O)NC1=O (stereo partly shown) [Compound 319] | < 1 | 1 to 30
COc1cc(C2CCC3(CC2)CCN(C(=O)c2ccc([C@H]4C[C@@H](Nc5cnn(C)c(=O)c5C)CN(C)C4)cc2)CC3)ccc1C1CCC(=O)NC1=O (stereo partly shown) [Compound 320] | < 1 | 1 to 30
CN1C[C@H](Nc2cnn(C)c(=O)c2Br)C[C@H](c2ccc(C(=O)N3CCC4(CCC(c5ccc(C6CCC(=O)NC6=O)cn5)CC4)CC3)cc2)C1 (stereo partly shown) [Compound 321] | < 1 | < 1
CN1C[C@H](Nc2cnn(C)c(=O)c2Cl)C[C@H](c2ccc(C(=O)N3CCC4(CCC(c5ccc(C6CCC(=O)NC6=O)cn5)CC4)CC3)cc2)C1 (stereo partly shown) [Compound 322] | < 1 | < 1
CN1C[C@H](Nc2cnn(C)c(=O)c2Br)C[C@H](c2ccc(C(=O)N3CCC4(CCC(c5ccc(C6CCC(=O)NC6=O)cc5)CC4)CC3)cc2)C1 (stereo partly shown) [Compound 323] | < 1 | < 1
CN1C[C@H](Nc2cnn(C)c(=O)c2Cl)C[C@H](c2ccc(C(=O)N3CCC4(CCC(c5ccc(C6CCC(=O)NC6=O)cc5)CC4)CC3)cc2)C1 (stereo partly shown) [Compound 324] | < 1 | < 1
CN1C[C@H](Nc2cnn(C)c(=O)c2Br)C[C@H](c2ccc(C(=O)N3CCC4(CCC(c5ccc(C6CCC(=O)NC6=O)c(F)c5)CC4)CC3)cc2)C1 (stereo partly shown) [Compound 325] | < 1 | < 1
CN1C[C@H](Nc2cnn(C)c(=O)c2Br)C[C@H](c2ccc(C(=O)N3CCC4(CCC(c5ccc(C6CCC(=O)NC6=O)cc5)CC4)CC3)cc2)C1 (stereo partly shown) [Compound 326] | < 1 | < 1
CN1C[C@H](Nc2cnn(C)c(=O)c2Cl)C[C@H](c2ccc(C(=O)N3CCC(Cc4ccc(N5CCC(=O)NC5=O)c(F)c4)CC3)cc2)C1 [Compound 327] | < 1 | 1 to 30
CN1C[C@H](Nc2cnn(C)c(=O)c2Br)C[C@H](c2ccc(C(=O)N3CCC(Cc4ccc(C5CCC(=O)NC5=O)c(F)c4)CC3)cc2)C1 (stereo partly shown) [Compound 328] | < 1 | < 1
CN1C[C@H](Nc2cnn(C)c(=O)c2Cl)C[C@H](c2ccc(C(=O)N3CCC4(CCC(c5ccc6c(C7CCC(=O)NC7=O)cncc6c5)CC4)CC3)cc2)C1 (stereo partly shown) [Compound 329] | < 1 | < 1
CN1C[C@H](Nc2cnn(C)c(=O)c2Br)C[C@H](c2ccc(C(=O)N3CCC(c4ccc5c(C6CCC(=O)NC6=O)cncc5c4)CC3)cc2)C1 (stereo partly shown) [Compound 330] | < 1 | > 30
CN1C[C@H](Nc2cnn(C)c(=O)c2Cl)C[C@H](c2ccc(C(=O)N3CCC(c4ccc5c(C6CCC(=O)NC6=O)cncc5c4)CC3)cc2)C1 (stereo partly shown) [Compound 331] | < 1 | > 30
CN1C[C@H](Nc2cnn(C)c(=O)c2Cl)C[C@H](c2ccc(C(=O)N3CCC(C#Cc4ccc(C5CCC(=O)NC5=O)cc4)CC3)cc2)C1 (stereo partly shown) [Compound 332] | < 1 | > 30
Cc1c(N[C@@H]2C[C@H](c3ccc(C(=O)N4CCC(C#Cc5ccc(C6CCC(=O)NC6=O)cc5)CC4)cc3)CN(C)C2)cnn(C)c1=O (stereo partly shown) [Compound 333] | < 1 | > 30
CN1C[C@H](Nc2cnn(C)c(=O)c2Br)C[C@H](c2ccc(C(=O)N3CCC(C#Cc4ccc(C5CCC(=O)NC5=O)cc4)CC3)cc2)C1 (stereo partly shown) [Compound 334] | < 1 | 1 to 30
CN1C[C@H](Nc2cnn(C)c(=O)c2Br)C[C@H](c2ccc(C(=O)N3CC(C#Cc4ccc(C5CCC(=O)NC5=O)cc4)C3)cc2)C1 (stereo partly shown) [Compound 335] | < 1 | > 30
CN1C[C@H](Nc2cnn(C)c(=O)c2Cl)C[C@H](c2ccc(C(=O)N3CC(C#Cc4ccc(C5CCC(=O)NC5=O)cc4)C3)cc2)C1 (stereo partly shown) [Compound 336] | < 1 | > 30
CN1C[C@H](Nc2cnn(C)c(=O)c2Br)C[C@H](c2ccc(C(=O)N3CC(C#Cc4ccc(C5CCC(=O)NC5=O)cc4)C3)cc2)C1 (stereo partly shown) [Compound 337] | < 1 | > 30
Cc1cc(N2CCC3(CCN(Cc4ccc([C@H]5C[C@@H](Nc6cnn(C)c(=O)c6Cl)CN(C)C5)cc4)CC3)CC2)ccc1C1CCC(=O)NC1=O (stereo partly shown) [Compound 338] | < 1 | < 1
